Columns and labels:
[1] = test system: porcine liver esterase; test: Esterase treatment with UPLC-HRMS analysis; format: in vitro ADME
Description: Esters 13b and 15b were subjected to esterase treatment (porcine liver esterase) at 37 °C and pH 7.4 for 2 h, and then the reaction mixtures were analyzed using UPLC-HRMS (Figure 4).[24] The molecular mass of the new products formed was determined by MS and confirmed that they were the expected carboxylic acids. […] The second hydrolysis is presumably slower because the substrate 17 is anionic, whereas for the first hydrolysis, the substrate 13b is neutral.[19],[25],[26] When 13b enters a cell through passive diffusion, the intracellular esterases will begin to hydrolyze the ester groups to give first 17 and then 14b. Since both 17 and 14b are negatively charged under physiological conditions, they will be unable to diffuse back out of the cell and so should accumulate there.[27] Diester 13b is more hydrophobic than triazole hydroxamate 4 (c Log D: 0.8 vs −0.5) and so should diffuse into cells more readily. […] Thus, we anticipate that 13b will be as useful as 4 in probing the role of vitamin B1 in cells.
Figure 4 UPLC-HRMS analysis of the esterase treatment. […] Compound (retention time/min): diester 13b (1.30), dicarboxylate 14b (0.51), monoester 15b (0.99), monocarboxylate 16b (0.51), and intermediate 17 (0.67).

[2] = test system: TPP-dependent enzymes; test: Inhibition / relative affinity across the TPP-dependent enzymes (PDH E1, PDC, PO, OGDH E1); format: biochemical; settings: comparison of relative affinities
Excerpt: The different biochemical reactions catalyzed, preferred substrates (Table S1), and primary sequences reflect the structurally and functionally diverse members of the family. […] However, as the inhibitors are TPP-competitive, what really matters is the affinity of each inhibitor relative to the affinity of TPP for that particular enzyme.

Question: COC(=O)C(CCCc1cn(Cc2cnc(C)nc2N)nn1)C(=O)OC [13b] was tested. Which “outcome of esterase treatment” value ([1]; 37 °C, pH 7.4, 2 h) did it give?
Answer: the major product was monoester monocarboxylate 17

Question: And the “outcome of esterase treatment” value ([1]; after 24 h)?
Answer: the only product seen was dicarboxylate 14b

Question: And the “affinities, fold lower than those of 14b” value [2]?
Answer: approximately 3 fold

Question: With COC(=O)CCCCc1cn(Cc2cnc(C)nc2N)nn1 [15b] as the molecule, how does the “outcome of esterase treatment” value ([1]; 37 °C, pH 7.4, 2 h) read?
Answer: completely hydrolyzed into monocarboxylate 16b

Question: Cc1ncc(Cn2cc(CCCCC(=O)[O-])nn2)c(N)n1.[K+] [16b] was tested. Which “affinities, fold lower than those of 14b” value [2] did it give?
Answer: approximately 3 fold

Reference: publication PMC11483378, “Triazole-Based Thiamine Analogues as Inhibitors of Thiamine Pyrophosphate-Dependent Enzymes: 1,3-Dicarboxylate for Metal Binding” (ACS Omega, 2024)
